Source: patent publication US20140378416A1, “SILYL-CONTAINING HETEROCYCLIC COMPOUNDS AND METHODS OF USE THEREOF FOR THE TREATMENT OF VIRAL DISEASES” (priority 2011, published 2014)
Like-named read-outs stand apart in the source and are kept apart here.

Experiments:
HCV replicon 1a Y93H = experiment: Cell-based HCV replicon assay (TaqMan), genotype 1a Y93H mutant replicon; details: Hepatitis C virus, 72 h, read-out: 1a Y93H EC90, HCV 1a Y93H mutant replicon cells, replicon RNA by TaqMan on day 3; EC90 = concentration for ΔCT=3.2 over baseline
Method: (§1) Measurement of inhibition by compounds of the present invention was performed using the HCV replicon system. Several different replicons encoding different HCV genotypes or mutations were used. In addition, potency measurements were made using different formats of the replicon assay, including different ways of measurements and different plating formats. See Jan M. Vrolijk et al., A replicons-based bioassay for the measurement of interferons in patients with chronic hepatitis C, 110 J. VIROLOGICAL METHODS 201 (2003); Steven S. Carroll et al., Inhibition of Hepatitis C Virus RNA Replication by 2′-Modified Nucleoside Analogs, 278(14) J. BIOLOGICAL CHEMISTRY 11979 (2003). However, the underlying principles are common to all of these determinations, and are outlined below.
(§2) Compounds of the present invention were assayed for cell-based anti-HCV activity using the following protocol. Replicon cells were seeded at 5000 cells/well in 96-well collagen I-coated Nunc plates in the presence of the test compound. Various concentrations of test compound, typically in 10 serial 2-fold dilutions, were added to the assay mixture, with the starting concentration ranging from 250 μM to 1 μM. The final concentration of DMSO was 0.5%, fetal bovine serum was 5%, in the assay media. Cells were harvested on day 3 by the addition of 1× cell lysis buffer (Ambion cat #8721). The replicon RNA level was measured using real time PCR (TaqMan® assay). The amplicon was located in 5B. The PCR primers were: 5B.2F, ATGGACAGGCGCCCTGA (SEQ. ID NO. 1); 5B.2R, […] (SEQ. ID NO. 2); the probe sequence was FAM-labeled CACGCCATGCGCTGCGG (SEQ. ID NO. 3). GAPDH RNA was used as endogenous control and was amplified in the same reaction as NS5B (multiplex PCR) using primers and VIC-labeled probe recommended by the manufacturer (PE Applied Biosystem). The real-time […] reactions were run on ABI PRISM 7900HT Sequence Detection System using the following program: 48° C. for 30 minutes, 95° C. for 10 minutes, 40 cycles of 95° C. for 15 sec, 60° C. for 1 minute. The ACT values (CT5B-CTGAPDH) were plotted against the concentration of test compound and fitted to the sigmoid dose-response model using XLfit4 (MDL). EC50 was defined as the concentration of inhibitor necessary to achieve ΔCT=1 over the projected baseline; EC90 the concentration necessary to achieve ΔCT=3.2 over the baseline. Alternatively, to quantitate the absolute amount of replicon RNA, a standard curve was established by including serially diluted T7 transcripts of replicon RNA in the Taqman assay. All TaqMan® reagents were from PE Applied Biosystems. Such an assay procedure was described in detail in e.g. Malcolm et al., Antimicrobial Agents and Chemotherapy 50: 1013-1020 (2006).
(§3) HCV replicon EC50 assay data for various replicons and mutants was calculated for selected compounds of the present invention using this method and is provided in the tables above herein.

HCV replicon 1a = experiment: Cell-based HCV replicon assay (TaqMan), genotype 1a replicon; details: HCV 1a replicon cells, replicon RNA by TaqMan on day 3, EC90 = concentration for ΔCT=3.2 over baseline
Method: as §1, §2, §3

HCV replicon 2b = experiment: Cell-based HCV replicon assay (TaqMan), genotype 2b replicon; details: EC90 = concentration for ΔCT=3.2 over baseline
Method: as §1, §2, §3

HCV replicon 1b = experiment: Cell-based HCV replicon assay (TaqMan), genotype 1b replicon; details: HCV 1b replicon cells, replicon RNA by TaqMan on day 3, EC90 = concentration for ΔCT=3.2 over baseline
Method: as §1, §2, §3

[1] = Hepatitis C virus, 72 h, read-out: 2b EC90, HCV 2b replicon cells, replicon RNA by TaqMan on day 3

Compound: CC[C@H](NC(=O)OC)C(=O)N1CCC[C@H]1c1ncc(-c2ccc(-c3ccc(-c4cnc([C@@H]5C[Si](C)(C)CN5C(=O)[C@H](CC)NC(=O)OC)[nH]4)cc3)cc2)[nH]1 [Compound 12]
- EC90 (HCV replicon 1a Y93H): 694 nM
- EC90 (HCV replicon 1a; Hepatitis C virus, 72 h): 0.187 nM
- EC90 (HCV replicon 2b; [1]): 535 nM
- EC90 (HCV replicon 1b; Hepatitis C virus, 72 h): 18.1 nM

Compound: CC[C@H](C)[C@H](NC(=O)OC)C(=O)N1CCC[C@H]1c1ncc(-c2ccc(-c3ccc(-c4cnc([C@@H]5C[Si](C)(C)CN5C(=O)[C@@H](NC(=O)OC)[C@@H](C)CC)[nH]4)cc3)cc2)[nH]1 [Compound 14]
- EC90 (HCV replicon 1a Y93H): 1000 nM
- EC90 (HCV replicon 1a): 3.22 nM
- EC90 (HCV replicon 2b; read-out: 2b EC90, HCV 2b replicon cells, replicon RNA by TaqMan on day 3): 1000 nM
- EC90 (HCV replicon 1b): 23.8 nM

Compound: CCC[C@H](NC(=O)OC)C(=O)N1CCC[C@H]1c1ncc(-c2ccc(-c3ccc(-c4cnc([C@@H]5C[Si](C)(C)CN5C(=O)[C@H](CCC)NC(=O)OC)[nH]4)cc3)cc2)[nH]1 [Compound 15]
- EC90 (HCV replicon 1a Y93H): 542 nM
- EC90 (HCV replicon 1a; Hepatitis C virus, 72 h): 2.43 nM
- EC90 (HCV replicon 2b; [1]): 515 nM
- EC90 (HCV replicon 1b; Hepatitis C virus, 72 h): 45.8 nM

Compound: COC(=O)N[C@H](C(=O)N1CCC[C@H]1c1ncc(-c2ccc(-c3ccc(-c4cnc([C@@H]5C[Si](C)(C)CN5C(=O)[C@@H](NC(=O)OC)C5CCOCC5)[nH]4)cc3)cc2)[nH]1)C1CCOCC1 [Compound 33]
- EC90 (HCV replicon 1a Y93H): 43 nM
- EC90 (HCV replicon 2b; [1]): 7.6 nM
- EC90 (HCV replicon 1b; Hepatitis C virus, 72 h): 0.09 nM

Compound: COC(=O)N[C@@H](Cc1cccc(O)c1)C(=O)N1CCC[C@H]1c1ncc(-c2ccc(-c3ccc(-c4cnc([C@@H]5C[Si](C)(C)CN5C(=O)[C@H](Cc5cccc(O)c5)NC(=O)OC)[nH]4)cc3)cc2)[nH]1 [Compound 26]
- EC90 (HCV replicon 1a Y93H): 1000 nM
- EC90 (HCV replicon 1a; Hepatitis C virus, 72 h): 11.5 nM
- EC90 (HCV replicon 2b; [1]): 1000 nM
- EC90 (HCV replicon 1b; Hepatitis C virus, 72 h): 387 nM

Compound: COC(=O)N[C@@H](C)C(=O)N1C[Si](C)(C)C[C@H]1c1nc(Cl)c(-c2ccc(-c3ccc(-c4[nH]c([C@@H]5C[C@H]6C[C@H]6N5C(=O)[C@H](C)NC(=O)OC)nc4Cl)cc3)cc2)[nH]1 [Compound 52]
- EC90 (HCV replicon 1a Y93H): 9.5 nM
- EC90 (HCV replicon 1a; Hepatitis C virus, 72 h): 0.021 nM
- EC90 (HCV replicon 2b; [1]): 57 nM
- EC90 (HCV replicon 1b; Hepatitis C virus, 72 h): 0.007 nM

Compound: COC(=O)N[C@H](C(=O)N1CCC[C@H]1c1ncc(-c2ccc(-c3ccc(-c4cnc([C@@H]5C[Si](C)(C)CN5C(=O)[C@@H](NC(=O)OC)[C@H](O)C(C)C)[nH]4)cc3)cc2)[nH]1)[C@H](O)C(C)C [Compound 39]
- EC90 (HCV replicon 1a Y93H): > 1000 nM
- EC90 (HCV replicon 2b; [1]): 510 nM
- EC90 (HCV replicon 1b; Hepatitis C virus, 72 h): 0.03 nM

Compound: COC(=O)N[C@H](C(=O)N1CCC[C@H]1c1ncc(-c2ccc(-c3ccc(-c4cnc([C@@H]5C[Si](C)(C)CN5C(=O)[C@@H](NC(=O)OC)C5CCCC5)[nH]4)cc3)cc2)[nH]1)C1CCCC1 [Compound 24]
- EC90 (HCV replicon 1a Y93H): 1000 nM
- EC90 (HCV replicon 1a; Hepatitis C virus, 72 h): 2.91 nM
- EC90 (HCV replicon 2b; [1]): 382 nM
- EC90 (HCV replicon 1b; Hepatitis C virus, 72 h): 17.3 nM

Compound: COC(=O)N[C@H](C(=O)N1CCC[C@@H]1c1ncc(-c2ccc(-c3ccc(-c4cnc([C@H]5C[Si](C)(C)CN5C(=O)[C@@H](NC(=O)OC)C5CC5)[nH]4)cc3)cc2)[nH]1)C1CC1 [Compound 22]
- EC90 (HCV replicon 1a Y93H): 1000 nM
- EC90 (HCV replicon 1a; Hepatitis C virus, 72 h): 1000 nM
- EC90 (HCV replicon 2b; [1]): 1000 nM
- EC90 (HCV replicon 1b; Hepatitis C virus, 72 h): 1000 nM

Compound: COC(=O)N[C@@H](Cc1ccccc1)C(=O)N1CCC[C@H]1c1ncc(-c2ccc(-c3ccc(-c4cnc([C@@H]5C[Si](C)(C)CN5C(=O)[C@H](Cc5ccccc5)NC(=O)OC)[nH]4)cc3)cc2)[nH]1 [Compound 13]
- EC90 (HCV replicon 1a Y93H): 1000 nM
- EC90 (HCV replicon 1a; Hepatitis C virus, 72 h): 29.8 nM
- EC90 (HCV replicon 2b; [1]): 1000 nM
- EC90 (HCV replicon 1b; Hepatitis C virus, 72 h): 923 nM

Compound: COC(=O)N[C@@H](C(=O)N1CCC[C@@H]1c1ncc(-c2ccc(-c3ccc(-c4cnc([C@H]5C[Si](C)(C)CN5C(=O)[C@H](NC(=O)OC)C5CCCOCC5)[nH]4)cc3)cc2)[nH]1)C1CCCOCC1 (stereo partly drawn) [Compound 21]
- EC90 (HCV replicon 1a Y93H): 1000 nM
- EC90 (HCV replicon 1a; Hepatitis C virus, 72 h): 4.42 nM
- EC90 (HCV replicon 2b; [1]): 204 nM
- EC90 (HCV replicon 1b; Hepatitis C virus, 72 h): 18.7 nM
